Assay results as given in paper PMC11975020, “Chemoproteomic analysis reveals RECQL4 as a mediator of nitroalkene-dependent double-strand break repair inhibition in cancer” (Research Square, 2025).

Molecular target: T1, RECQL4 (Homo sapiens, UniProt O94761)
T1 construct: RECQL4^449–1111 (lacking the N-terminus)
T1 sequence (O94761 449-1111): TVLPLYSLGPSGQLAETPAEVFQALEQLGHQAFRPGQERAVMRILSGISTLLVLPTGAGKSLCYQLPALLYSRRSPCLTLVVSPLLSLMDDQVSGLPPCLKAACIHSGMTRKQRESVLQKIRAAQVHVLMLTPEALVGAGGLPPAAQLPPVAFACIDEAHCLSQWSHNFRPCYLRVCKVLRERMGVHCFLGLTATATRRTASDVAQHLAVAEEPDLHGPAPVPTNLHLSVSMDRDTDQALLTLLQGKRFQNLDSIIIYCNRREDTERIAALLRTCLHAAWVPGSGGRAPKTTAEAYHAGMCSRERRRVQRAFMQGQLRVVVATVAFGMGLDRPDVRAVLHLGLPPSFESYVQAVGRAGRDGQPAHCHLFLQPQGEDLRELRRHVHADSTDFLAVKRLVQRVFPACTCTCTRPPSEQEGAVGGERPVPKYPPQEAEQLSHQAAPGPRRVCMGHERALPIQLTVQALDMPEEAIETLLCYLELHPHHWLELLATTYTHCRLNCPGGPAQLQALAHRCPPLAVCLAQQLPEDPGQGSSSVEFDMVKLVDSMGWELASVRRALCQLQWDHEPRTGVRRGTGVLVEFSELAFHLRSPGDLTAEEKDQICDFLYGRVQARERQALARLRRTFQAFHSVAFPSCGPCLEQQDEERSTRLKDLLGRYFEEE
Experiment: gel-based helicase unwinding assay with purified protein; confirmed by real-time fluorescence helicase assay; LC-MS/MS adduct at Cys1052 in U2OS cells
Format: biochemical

IC50: 0.252 µM
SMILES: CCCCCCCC/C(=C\CCCCCCCC(=O)O)[N+](=O)[O-] [OA-NO2]
